Measured values published in patent US10703733B2, “MCL-1 inhibitors” (Gilead Sciences, Inc., priority 2018, dated 2020).
Where two headings read alike, the source gives them in different places.

Key:
SKBR3 cells = assay: SKBR3 Cell Viability Assay (CellTiter Glo); type: cell-based; settings: CellTiter Glo luminescence, read-out: MCL-1 CV SKBR3 EC50
Procedure, shortened: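 Viability read as CellTiter Glo luminescence after 72 h of compound exposure at 37° C./5% CO2, using 6,000 SKBR3 cells per well in McCoy 5A with 10% FBS. Percent inhibition scaled between DMSO wells and 10 μM puromycin wells.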

[1] = target: MCL-1/Bim interaction (recombinant human MCL-1 protein, residues 171-327; biotinylated human Bim peptide, residues 51-76) (Homo sapiens (Human), UniProt Q07820); assay: MCL-1/Bim Binding AlphaLISA Assay; settings: 0.0625 nM 6xHis-Mcl-1 (171-327), 0.0625 nM biotinylated-Bim peptide
Sequence of MCL-1/Bim interaction (recombinant human MCL-1 protein, residues 171-327; biotinylated human Bim peptide, residues 51-76) (Q07820 171-327): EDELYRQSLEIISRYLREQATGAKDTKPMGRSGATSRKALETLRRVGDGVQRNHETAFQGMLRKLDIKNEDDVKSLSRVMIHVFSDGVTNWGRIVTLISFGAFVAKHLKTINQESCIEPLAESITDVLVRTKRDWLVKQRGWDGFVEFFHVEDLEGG
Procedure, shortened: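 Protein 0.0625 nM + cpd, 1 h; add biotin-Bim 0.0625 nM, 2 h; acceptor beads 1 h; donor beads 1 h; AlphaScreen read. Buffer 20 mM Hepes pH 7.5, 150 mM NaCl, 1 mM DTT.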

| SMILES | EC50 (SKBR3 cells; Homo sapiens, SK-BR-3, 72 h) [nM] | IC50 [1] [nM] | EC50 (SKBR3 cells; 72 hours) [nM] |
| --- | --- | --- | --- |
| CO[C@H]1/C=C/C[C@H](C)C[S@@](=O)(NC(=O)NC2CC2)=NC(=O)c2ccc3c(c2)N(C[C@@H]2CC[C@H]21)C[C@@]1(CCCc2cc(Cl)ccc21)CO3 [Example 144] | 50.8 | 0.05 | – |
| COc1nn(C)cc1C(=O)N[S@@]1(=O)=NC(=O)c2ccc3c(c2)N(C[C@@H]2CC[C@H]2[C@@H](OC)/C=C\C[C@H](C)C1)C[C@@]1(CCCc2cc(Cl)ccc21)CO3 [Example 228] | 69.9 | 0.069 | – |
| COCC1CN(C(=O)N[S@@]2(=O)=NC(=O)c3ccc4c(c3)N(C[C@@H]3CC[C@H]3[C@@H](OC)/C=C/C[C@H](C)C2)C[C@@]2(CCCc3cc(Cl)ccc32)CO4)C1 [Example 346] | 30.9 | 0.031 | – |
| CO[C@H]1/C=C/CCC[S@@](=O)(NC(=O)CCc2ccncc2)=NC(=O)c2ccc3c(c2)N(C[C@@H]2CC[C@H]21)C[C@@]1(CCCc2cc(Cl)ccc21)CO3 [Example 41] | 256 | 0.1 | – |
| CO[C@H]1/C=C/C[C@H](C)C[S@@](=O)(NC(=O)[C@]23COCC2C3)=NC(=O)c2ccc3c(c2)N(C[C@@H]2CC[C@H]21)C[C@@]1(CCCc2cc(Cl)ccc21)CO3 (some centres unmarked) [Example 447] | 161 | 0.132 | – |
| CO[C@H]1/C=C/C[C@H](C)C[S@@](=O)(NC(=O)c2cc(Cl)n(C)c2)=NC(=O)c2ccc3c(c2)N(C[C@@H]2CC[C@H]21)C[C@@]1(CCCc2cc(Cl)ccc21)CO3 [Example 118] | 184 | 0.103 | – |
| CO[C@H]1/C=C/C[C@H](C)C[S@@](=O)(NC(=O)c2cnn(C3CCC3)c2)=NC(=O)c2ccc3c(c2)N(C[C@@H]2CC[C@H]21)C[C@@]1(CCCc2cc(Cl)ccc21)CO3 [Example 176] | 79.3 | 0.138 | – |
| COC1CCn2cc(C(=O)N[S@@]3(=O)=NC(=O)c4ccc5c(c4)N(C[C@@H]4CC[C@H]4[C@@H](OC)/C=C/C[C@H](C)C3)C[C@@]3(CCCc4cc(Cl)ccc43)CO5)cc2C1 (some centres unmarked) [Example 175] | 33.9 | 0.14 | – |
| CO[C@H]1/C=C/CCC[S@@](=O)(NC(=O)NCc2ccnn2C)=NC(=O)c2ccc3c(c2)N(C[C@@H]2CC[C@H]21)C[C@@]1(CCCc2cc(Cl)ccc21)CO3 [Example 75] | 692 | 0.3 | – |
| CNC(=O)N[S@@]1(=O)=NC(=O)c2ccc3c(c2)N(C[C@@H]2CC[C@H]2[C@@H](OC)/C=C/C[C@H](C)C1)C[C@@]1(CCCc2cc(Cl)ccc21)CO3 [Example 454] | 146 | 0.098 | – |
| CO[C@H]1/C=C/CCC[S@@](=O)(NC(=O)C2CC2)=NC(=O)c2ccc3c(c2)N(C[C@@H]2CC[C@H]21)C[C@@]1(CCCc2cc(Cl)ccc21)CO3 [Example 27] | 2080 | 1.6 | – |
| CO[C@H]1/C=C/C[C@H](C)C[S@@](=O)(NC(=O)c2cn(C)nc2N)=NC(=O)c2ccc3c(c2)N(C[C@@H]2CC[C@H]21)C[C@@]1(CCCc2cc(Cl)ccc21)CO3 [Example 173] | 67.9 | 0.087 | – |
| CO[C@H]1/C=C/C[C@H](C)C[S@@](=O)(NC(=O)c2cc(CO)n(C)c2)=NC(=O)c2ccc3c(c2)N(C[C@@H]2CC[C@H]21)C[C@@]1(CCCc2cc(Cl)ccc21)CO3 [Example 185] | 99.2 | 0.041 | – |
| CCn1cc(C(=O)N[S@@]2(=O)=NC(=O)c3ccc4c(c3)N(C[C@@H]3CC[C@H]3[C@@H](OC)/C=C/CCC2)C[C@@]2(CCCc3cc(Cl)ccc32)CO4)cn1 [Example 405] | 196 | 0.113 | – |
| CO[C@H]1/C=C/C[C@H](C)C[S@@](=O)(NC(=O)N2C[C@@H](OC)[C@@H]2C)=NC(=O)c2ccc3c(c2)N(C[C@@H]2CC[C@H]21)C[C@@]1(CCCc2cc(Cl)ccc21)CO3 [Example 253] | 39.2 | 0.037 | – |
| CO[C@H]1/C=C/CCC[S@@](=O)(NC(=O)C2COC2)=NC(=O)c2ccc3c(c2)N(C[C@@H]2CC[C@H]21)C[C@@]1(CCCc2cc(Cl)ccc21)CO3 [Example 24] | 891 | 0.2 | – |
| CO[C@H]1/C=C/CCC[S@@](=O)(NC(=O)C2CCC2)=NC(=O)c2ccc3c(c2)N(C[C@@H]2CC[C@H]21)C[C@@]1(CCCc2cc(Cl)ccc21)CO3 [Example 31] | 2590 | 3.1 | – |
| CO[C@H]1/C=C/C[C@H](C)C[S@@](=O)(NC(=O)c2cc3n(n2)CCO3)=NC(=O)c2ccc3c(c2)N(C[C@@H]2CC[C@H]21)C[C@@]1(CCCc2cc(Cl)ccc21)CO3 [Example 219] | 146 | 0.099 | – |
| CO[C@H]1/C=C/C[C@H](C)C[S@@](=O)(NC(=O)N[C@@H]2C[C@H]2CC(F)F)=NC(=O)c2ccc3c(c2)N(C[C@@H]2CC[C@H]21)C[C@@]1(CCCc2cc(Cl)ccc21)CO3 (single isomer, unassigned) [Example 281] | – | 0.154 | 184 |

| SMILES | EC50 (SKBR3 cells; Homo sapiens, SK-BR-3, 72 h) [nM] | IC50 [1] [nM] | EC50 (SKBR3 cells; 72 hours) [nM] |
| --- | --- | --- | --- |
| CCC(=O)N[S@@]1(=O)=NC(=O)c2ccc3c(c2)N(C[C@@H]2CC[C@H]2[C@@H](OC)CCCCC1)C[C@@]1(CCCc2cc(Cl)ccc21)CO3 [Example 12] | – | 1.7 | 4460 |
| CO[C@H]1/C=C/C[C@H](C)[C@@H](C)[S@@](=O)(NC(=O)[C@H]2C[C@@](C)(O)C2)=NC(=O)c2ccc3c(c2)N(C[C@@H]2CC[C@H]21)C[C@@]1(CCCc2cc(Cl)ccc21)CO3 [Example 166] | 79.8 | 0.067 | – |
| CO[C@H]1/C=C/C[C@H](C)C[S@@](=O)(NC(=O)N[C@H]2C[C@H]2CO)=NC(=O)c2ccc3c(c2)N(C[C@@H]2CC[C@H]21)C[C@@]1(CCCc2cc(Cl)ccc21)CO3 (single isomer, unassigned) [Example 365] | 146 | 0.04 | – |
| COC[C@@H]1Cn2cc(C(=O)N[S@@]3(=O)=NC(=O)c4ccc5c(c4)N(C[C@@H]4CC[C@H]4[C@@H](OC)/C=C/C[C@H](C)C3)C[C@@]3(CCCc4cc(Cl)ccc43)CO5)cc2CO1 [Example 306] | 43.6 | 0.057 | – |
| CO[C@H]1/C=C/C[C@H](C)C[S@@](=O)(NC(=O)N[C@H]2C[C@H](OC(=O)N(C)C)C2)=NC(=O)c2ccc3c(c2)N(C[C@@H]2CC[C@H]21)C[C@@]1(CCCc2cc(Cl)ccc21)CO3 [Example 360] | 139 | 0.052 | – |
| COc1ncc(C(=O)N[S@@]2(=O)=NC(=O)c3ccc4c(c3)N(C[C@@H]3CC[C@H]3[C@@H](OC)/C=C/C[C@H](C)C2)C[C@@]2(CCCc3cc(Cl)ccc32)CO4)c(OC)n1 [Example 271] | 176 | 0.1 | – |
| CO[C@H]1/C=C/C[C@H](C)C[S@@](=O)(NC(=O)NC23COC(C)(C2)C3)=NC(=O)c2ccc3c(c2)N(C[C@@H]2CC[C@H]21)C[C@@]1(CCCc2cc(Cl)ccc21)CO3 [Example 340] | 37.1 | 0.031 | – |
| CO[C@H]1/C=C/C[C@H](C)C[S@@](=O)(NC(=O)c2ccc3ncnn3c2)=NC(=O)c2ccc3c(c2)N(C[C@@H]2CC[C@H]21)C[C@@]1(CCCc2cc(Cl)ccc21)CO3 [Example 432] | 172 | 0.07 | – |
| COC1CN(C(=O)N[S@@]2(=O)=NC(=O)c3ccc4c(c3)N(C[C@@H]3CC[C@H]3[C@@H](OC)CCC[C@H](C)C2)C[C@@]2(CCCc3cc(Cl)ccc32)CO4)C1 [Example 244] | 116 | 0.032 | – |
| CO[C@H]1/C=C/C[C@H](C)C[S@@](=O)(NC(=O)N[C@@H]2CC2(F)F)=NC(=O)c2ccc3c(c2)N(C[C@@H]2CC[C@H]21)C[C@@]1(CCCc2cc(Cl)ccc21)CO3 [Example 440] | 284 | 0.051 | – |
| CO[C@H]1/C=C/C[C@H](C)C[S@@](=O)(NC(=O)N2CCN(C(C)=O)CC2)=NC(=O)c2ccc3c(c2)N(C[C@@H]2CC[C@H]21)C[C@@]1(CCCc2cc(Cl)ccc21)CO3 [Example 247] | 85 | 0.042 | – |
| COCC12CC(NC(=O)N[S@@]3(=O)=NC(=O)c4ccc5c(c4)N(C[C@@H]4CC[C@H]4[C@@H](OC)/C=C/C[C@H](C)C3)C[C@@]3(CCCc4cc(Cl)ccc43)CO5)(C1)C2 [Example 211] | 54.2 | 0.082 | – |
| CO[C@H]1/C=C/C[C@H](C)C[S@@](=O)(NC(=O)c2cnn(C)c2)=NC(=O)c2ccc3c(c2)N(C[C@@H]2CC[C@H]21)C[C@@]1(CCCc2cc(Cl)ccc21)CO3 [Example 148] | 37.2 | 0.043 | – |
| CO[C@H]1/C=C/C[C@H](C)C[S@@](=O)(NC(=O)NC2CCOCC2)=NC(=O)c2ccc3c(c2)N(C[C@@H]2CC[C@H]21)C[C@@]1(CCCc2cc(Cl)ccc21)CO3 [Example 442] | 122 | 0.134 | – |
| COC1CCN(C2CN(C(=O)N[S@@]3(=O)=NC(=O)c4ccc5c(c4)N(C[C@@H]4CC[C@H]4[C@@H](OC)/C=C/C[C@H](C)C3)C[C@@]3(CCCc4cc(Cl)ccc43)CO5)C2)CC1 [Example 287] | 25 | 0.029 | – |
| CO[C@H]1/C=C/C[C@H](C)C[S@@](=O)(NC(=O)c2cc3n(c2)CCCC3)=NC(=O)c2ccc3c(c2)N(C[C@@H]2CC[C@H]21)C[C@@]1(CCCc2cc(Cl)ccc21)CO3 [Example 415] | 105 | 0.526 | – |
| COC[C@@H]1Cn2cc(C(=O)N[S@@]3(=O)=NC(=O)c4ccc5c(c4)N(C[C@@H]4CC[C@H]4[C@@H](O)/C=C/C[C@H](C)[C@H]3C)C[C@@]3(CCCc4cc(Cl)ccc43)CO5)cc2CO1 [Example 345] | 22.6 | 0.037 | – |
| CO[C@H]1/C=C/C[C@H](C)C[S@@](=O)(NC(=O)N[C@H]2C[C@@H]2CN2CCOCC2)=NC(=O)c2ccc3c(c2)N(C[C@@H]2CC[C@H]21)C[C@@]1(CCCc2cc(Cl)ccc21)CO3 [Example 328] | 72.2 | 0.049 | – |
